According to the NIST ThermoML archive (doi:10.1007/s10765-011-0995-x):

Experiments:
[1] = refractive index (Na D-line) (dimensionless); xn = mol fraction of the nth substance listed; details: 101 kPa, Liquid, Standard Abbe refractometry
[2] = xn = mol fraction of the nth substance listed; details: 298.15 K, 101 kPa, Liquid; for speed of sound: Pulse-echo method

Cc1ccc(Cl)cc1 [4-chlorotoluene] + CCCCCCCCCCO
refractive index, [1]
Details | 298.15 K | 303.15 K | 308.15 K
x1 = 0.0718 | 1.4376 | 1.4357 | 1.4337
x1 = 0.1353 | 1.4405 | 1.4387 | 1.4367
x1 = 0.1976 | 1.4437 | 1.4418 | 1.4398
x1 = 0.2703 | 1.4477 | 1.4458 | 1.4439
x1 = 0.341 | 1.4519 | 1.4501 | 1.4481
x1 = 0.4103 | 1.4566 | 1.4547 | 1.4527
x1 = 0.482 | 1.4618 | 1.46 | 1.458
x1 = 0.5531 | 1.4676 | 1.4657 | 1.4637
x1 = 0.6234 | 1.4738 | 1.4719 | 1.4698
x1 = 0.7045 | 1.4818 | 1.4798 | 1.4776
x1 = 0.7497 | 1.4866 | 1.4846 | 1.4824
x1 = 0.8196 | 1.4947 | 1.4926 | 1.4902
x1 = 0.8907 | 1.5035 | 1.5015 | 1.499
x1 = 0.9556 | 1.5124 | 1.5104 | 1.5078
x1 = 1 | 1.5188 | 1.5166 | 1.5138

[2]
Details | mass density [kg/m3] | speed of sound [m/s] | viscosity [mPa·s]
x1 = 0.0718 | 837.82 | 1373.1 | 9.725
x1 = 0.1353 | 848.32 | 1366.4 | 8.154
x1 = 0.1976 | 859.01 | 1359.4 | 6.842
x1 = 0.2703 | 872.09 | 1350.9 | 5.561
x1 = 0.341 | 885.46 | 1342.3 | 4.546
x1 = 0.4103 | 899.31 | 1333.9 | 3.733
x1 = 0.482 | 914.52 | 1325 | 3.045
x1 = 0.5531 | 930.57 | 1316.5 | 2.495
x1 = 0.6234 | 947.55 | 1308.6 | 2.058
x1 = 0.7045 | 968.72 | 1300.2 | 1.654
x1 = 0.7497 | 981.35 | 1296.1 | 1.472
x1 = 0.8196 | 1002.21 | 1291 | 1.239
x1 = 0.8907 | 1025.23 | 1288 | 1.047
x1 = 0.9556 | 1048.23 | 1287.5 | 0.907
x1 = 1 | 1065.11 | 1289.1 | 0.828
